This is an account of results in ChEMBL document CHEMBL3085697, “Design and synthesis of aryl sulfonamide-based nonsteroidal mineralocorticoid receptor antagonists” (Bioorg Med Chem Lett, 2013).

The target of data set [1] is T1, Mineralocorticoid receptor (Homo sapiens, UniProt P08235).
T1 sequence (P08235 whole entry): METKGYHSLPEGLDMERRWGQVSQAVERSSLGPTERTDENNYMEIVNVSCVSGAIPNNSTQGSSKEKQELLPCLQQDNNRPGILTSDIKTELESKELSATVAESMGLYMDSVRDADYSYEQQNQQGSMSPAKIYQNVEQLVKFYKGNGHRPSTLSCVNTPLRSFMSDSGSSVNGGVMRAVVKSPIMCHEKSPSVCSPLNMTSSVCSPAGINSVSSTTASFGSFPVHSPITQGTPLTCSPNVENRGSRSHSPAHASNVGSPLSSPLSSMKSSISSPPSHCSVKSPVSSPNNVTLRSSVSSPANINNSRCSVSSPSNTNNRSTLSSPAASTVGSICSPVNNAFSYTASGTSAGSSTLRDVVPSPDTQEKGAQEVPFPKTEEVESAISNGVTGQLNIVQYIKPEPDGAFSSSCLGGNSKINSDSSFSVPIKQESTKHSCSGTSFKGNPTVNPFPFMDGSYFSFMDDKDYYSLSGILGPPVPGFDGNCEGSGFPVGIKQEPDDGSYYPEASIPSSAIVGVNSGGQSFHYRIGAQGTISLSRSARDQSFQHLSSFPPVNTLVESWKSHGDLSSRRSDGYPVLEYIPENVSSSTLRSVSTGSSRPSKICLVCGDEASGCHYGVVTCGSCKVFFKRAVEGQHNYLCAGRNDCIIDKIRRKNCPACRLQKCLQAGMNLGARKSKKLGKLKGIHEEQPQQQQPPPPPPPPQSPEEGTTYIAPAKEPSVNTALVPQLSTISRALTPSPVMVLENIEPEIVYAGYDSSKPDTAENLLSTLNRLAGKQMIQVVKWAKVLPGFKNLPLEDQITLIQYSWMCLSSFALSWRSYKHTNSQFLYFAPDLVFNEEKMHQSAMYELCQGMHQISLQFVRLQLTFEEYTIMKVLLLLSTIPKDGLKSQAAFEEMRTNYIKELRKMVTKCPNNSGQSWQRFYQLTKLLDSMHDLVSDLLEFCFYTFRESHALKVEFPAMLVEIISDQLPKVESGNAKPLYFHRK
In words: Antagonist activity at human mineralocorticoid receptor ligand binding domain expressed in human Huh7 cells after 16 hrs by luciferase reporter gene assay in presence of serum. It counts as cell-based, Huh-7. A general note: A reporter such as luciferase makes a cellular process visible.

In the next data set the target is T2, CYP1A2 (Homo sapiens, UniProt P05177).
T2 sequence (P05177 whole entry): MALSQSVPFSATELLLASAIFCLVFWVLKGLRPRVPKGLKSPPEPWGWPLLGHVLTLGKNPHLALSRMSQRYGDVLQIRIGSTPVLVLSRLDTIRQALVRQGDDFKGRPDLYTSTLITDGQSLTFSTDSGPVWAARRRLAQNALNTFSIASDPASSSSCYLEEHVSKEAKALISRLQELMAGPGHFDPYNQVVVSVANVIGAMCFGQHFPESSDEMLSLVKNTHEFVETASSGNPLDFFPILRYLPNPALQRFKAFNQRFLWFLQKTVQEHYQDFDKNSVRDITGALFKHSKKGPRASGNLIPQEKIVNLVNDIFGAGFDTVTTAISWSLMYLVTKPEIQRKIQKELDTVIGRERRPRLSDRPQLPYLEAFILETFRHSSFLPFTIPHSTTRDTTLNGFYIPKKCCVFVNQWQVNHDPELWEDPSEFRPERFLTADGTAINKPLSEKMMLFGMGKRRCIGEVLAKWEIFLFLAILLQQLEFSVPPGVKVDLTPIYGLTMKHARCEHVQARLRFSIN
In words: Inhibition of CYP1A2 (unknown origin) at 3 uM. It counts as ADME.

The target in a further data set is CYP2C9 (Homo sapiens, UniProt P11712). Put plainly: Inhibition of CYP2C9 (unknown origin) at 3 uM. It counts as ADME.
The next data set deals with T3, Progesterone receptor (Homo sapiens, UniProt P06401).
T3 sequence (P06401 whole entry): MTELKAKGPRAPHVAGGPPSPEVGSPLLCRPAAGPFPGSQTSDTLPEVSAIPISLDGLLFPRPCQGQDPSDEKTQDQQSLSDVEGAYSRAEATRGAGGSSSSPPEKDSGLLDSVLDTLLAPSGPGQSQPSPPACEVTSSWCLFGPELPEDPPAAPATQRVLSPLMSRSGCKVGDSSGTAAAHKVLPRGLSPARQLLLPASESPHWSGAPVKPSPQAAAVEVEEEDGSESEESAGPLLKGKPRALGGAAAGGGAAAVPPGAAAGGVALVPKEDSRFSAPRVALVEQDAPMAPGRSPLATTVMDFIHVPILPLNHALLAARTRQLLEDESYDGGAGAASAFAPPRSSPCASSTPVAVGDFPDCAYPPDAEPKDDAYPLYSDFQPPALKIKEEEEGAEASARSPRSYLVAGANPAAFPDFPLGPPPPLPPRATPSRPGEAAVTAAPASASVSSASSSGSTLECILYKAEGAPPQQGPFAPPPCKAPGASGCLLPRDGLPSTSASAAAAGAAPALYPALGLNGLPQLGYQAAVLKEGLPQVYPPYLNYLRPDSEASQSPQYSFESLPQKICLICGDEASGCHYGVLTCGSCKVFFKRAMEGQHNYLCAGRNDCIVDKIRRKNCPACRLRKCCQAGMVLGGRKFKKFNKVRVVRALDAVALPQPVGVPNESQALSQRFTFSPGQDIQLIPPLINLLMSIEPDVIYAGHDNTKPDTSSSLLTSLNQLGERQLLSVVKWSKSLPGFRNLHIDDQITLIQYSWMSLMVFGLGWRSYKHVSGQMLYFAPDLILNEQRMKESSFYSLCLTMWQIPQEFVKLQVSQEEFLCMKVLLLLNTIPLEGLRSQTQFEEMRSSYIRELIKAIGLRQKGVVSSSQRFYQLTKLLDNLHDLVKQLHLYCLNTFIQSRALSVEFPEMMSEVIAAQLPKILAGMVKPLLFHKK
Put plainly: Displacement of [3H]progesterone from human His-progesterone receptor B after 4 hrs by liquid scintillation counting. Background: Loss of bound radioactivity is the signal in a displacement assay; it reports binding, not function.

Sequence of CYP2C9 (P11712 whole entry): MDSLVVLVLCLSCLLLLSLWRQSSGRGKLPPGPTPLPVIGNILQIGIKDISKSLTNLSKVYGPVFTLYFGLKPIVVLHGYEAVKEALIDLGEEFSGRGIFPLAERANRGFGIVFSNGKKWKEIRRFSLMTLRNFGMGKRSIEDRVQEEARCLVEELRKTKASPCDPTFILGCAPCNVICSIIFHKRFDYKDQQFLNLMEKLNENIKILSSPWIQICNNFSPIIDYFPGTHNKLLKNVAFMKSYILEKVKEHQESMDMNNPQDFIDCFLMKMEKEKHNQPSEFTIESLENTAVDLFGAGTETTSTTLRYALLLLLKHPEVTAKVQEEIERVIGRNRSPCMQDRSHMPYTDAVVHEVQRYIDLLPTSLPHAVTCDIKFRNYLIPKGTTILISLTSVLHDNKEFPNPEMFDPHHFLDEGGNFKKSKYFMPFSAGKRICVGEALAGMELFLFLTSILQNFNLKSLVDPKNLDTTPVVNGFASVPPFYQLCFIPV

The IC50 is the concentration that gives 50% inhibition. What is called inhibition is the share of the control response that was lost under treatment. Regarding `Cc1cn(-c2ccc(CNS(=O)(=O)c3cc(F)ccc3F)cc2)c(C)n1`, the concentration for half-maximal inhibition (IC50) in data set [1] is 1310 nM; at Progesterone receptor it was > 9.21 µM. The inhibition at 3 µM on CYP1A2 and at CYP2C9 was < 5% each time.
